“Also recorded” adds a separate entry of the source. Where two headings read alike, the source gives them in different places.
Experiments:
[1] = tested on: sterol levels in OPCs (cholesterol biosynthesis pathway); assay: GC/MS-based sterol profiling in OPCs; type: cell-based, mouse
[2] = tested on: mouse epiblast stem cell-derived OPCs; assay: In vitro OPC differentiation assay (percentage of MBP+ oligodendrocytes, high-content imaging); type: cell-based; conditions: for formation of MBP+ oligodendrocytes in combination with ketoconazole: co-treatment with ketoconazole 2.5 μM
Method: To rigorously assess effects of small molecule and genetic treatments on OPCs, all treatments were assayed in two batches of epiblast stem cell-derived OPCs, and key results were confirmed using mouse primary OPCs. OPCs were generated from two separate EpiSC lines, EpiSC5 (giving rise to OPC-5 OPCs) and 12901 (giving rise to OPC-1 OPCs). EpiSC-derived OPCs were obtained using in vitro differentiation protocols and culture conditions described previously. To ensure uniformity throughout all in vitro screening experiments, EpiSC-derived OPCs were sorted to purity by fluorescence activated cell sorting at passage five with conjugated CD 140a-APC (eBioscience, 17-1401; 1:80) and NG2-AF488 (Millipore, AB[…]; 1:100) antibodies. Sorted batches of OPCs were expanded and frozen down in aliquots. OPCs were thawed into growth conditions for one passage before use in further assays. Cultures were regularly tested and shown to be mycoplasma free. EpiSC-derived OPCs were grown and expanded in poly-ornithine (PO) and laminin-coated flasks with growth medium (DMEM/F12 supplemented with N2-MAX (R&D Systems), B-27 (ThermoFisher), GlutaMax (Gibco), FGF2 ([…], R&D systems, 233-FB-025) and PDGF-AA ([…], R&D systems, 233-AA-050) before harvesting for plating. The cells were seeded onto poly-D-[…]-well CellCarrier plates (PerkinElmer) coated with laminin (Sigma, L2020; 15 μg/ml) using multi-channel pipet. For the experiment, 800,000 cells/mL stock in differentiation medium (DMEM/F12 supplemented with N2-MAX and B-27) was prepared and stored on ice for 2 h. Then, 40,000 cells were seeded per well in differentiation medium and allowed to attach for 30 min before addition of drug. For dose-response testing of all molecules except sterols, a 1000× compound stock in dimethyl sulphoxide (DMSO) was added to assay plates with 0.1 μL solid pin multi-blot replicators (V & P Scientific; VP 409), resulting in a final primary screening concentration of 1×. Sterols were added to cells as an ethanol solution (0.2% final ethanol concentration). Positive control wells (ketoconazole, 2.5 μM) and DMSO vehicle controls were included in each assay plate. Cells were incubated under standard conditions (37° C., 5% CO2) for 3 days and fixed with 4% paraformaldehyde (PFA) in phosphate buffered saline (PBS) for 20 min. Fixed plates were washed with PBS (200 μL per well) twice, permeabilized with 0.1% Triton X-100 and blocked with 10% donkey serum (v/v) in PBS for 40 min. Then, cells were labelled with MBP antibodies (Abcam, ab7349; 1:200) for 16 h at 4° C. followed by detection with Alexa Fluor conjugated secondary antibodies (1:500) for 45 min. Nuclei were visualized by DAPI staining (Sigma; 1 μg/ml). During washing steps, PBS was added using a multi-channel pipet and aspiration was performed using Biotek EL406 washer dispenser (Biotek) equipped with a 96-well aspiration manifold. Plates were imaged on the Operetta High Content Imaging and Analysis system (PerkinElmer) and a set of 6 fields captured from each well resulting in an average of 1200 cells being scored per well. Analysis (PerkinElmer Harmony and Columbus software) began by identifying intact nuclei stained by DAPI; that is, those traced nuclei that were larger than 300 μm^2 in surface area. Each traced nucleus region was then expanded by 50% and cross-referenced with the […] (MBP) stain to identify oligodendrocyte nuclei, and from this the percentage of oligodendrocytes was calculated. In some experiments, the total process length of MBP^+ oligodendrocytes was calculated as previously described.

[3] = target: T1, rat CYP51 (Rattus norvegicus, UniProt Q64654); conditions: rat CYP51 enzymatic activity
T1 sequence (Q64654 1-503): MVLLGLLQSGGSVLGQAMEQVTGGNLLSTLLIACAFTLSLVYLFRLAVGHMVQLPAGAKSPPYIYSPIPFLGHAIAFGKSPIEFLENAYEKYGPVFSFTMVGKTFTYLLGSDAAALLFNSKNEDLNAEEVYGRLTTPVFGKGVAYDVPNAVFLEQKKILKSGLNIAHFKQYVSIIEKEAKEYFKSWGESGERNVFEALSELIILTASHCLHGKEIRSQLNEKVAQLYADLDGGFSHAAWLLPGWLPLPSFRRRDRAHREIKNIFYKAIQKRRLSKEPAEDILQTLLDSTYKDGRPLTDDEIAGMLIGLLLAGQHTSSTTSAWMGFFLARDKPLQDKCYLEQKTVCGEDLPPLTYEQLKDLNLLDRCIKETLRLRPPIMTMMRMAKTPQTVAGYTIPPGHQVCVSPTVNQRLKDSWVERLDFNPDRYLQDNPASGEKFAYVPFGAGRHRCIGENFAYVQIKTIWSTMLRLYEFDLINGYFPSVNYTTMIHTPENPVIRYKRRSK

[4] = target: T1, rat CYP51; assay: biochemical
[5] = target: T2, EBP (Mus musculus, UniProt P70245); assay: EBP enzymatic assay (GC/MS); type: biochemical; conditions: small molecules 10 μM, zymostenol 25 μM, 2 h
T2 construct: active EBP was obtained from mouse microsomes; from tissue
T2 sequence (P70245 1-230): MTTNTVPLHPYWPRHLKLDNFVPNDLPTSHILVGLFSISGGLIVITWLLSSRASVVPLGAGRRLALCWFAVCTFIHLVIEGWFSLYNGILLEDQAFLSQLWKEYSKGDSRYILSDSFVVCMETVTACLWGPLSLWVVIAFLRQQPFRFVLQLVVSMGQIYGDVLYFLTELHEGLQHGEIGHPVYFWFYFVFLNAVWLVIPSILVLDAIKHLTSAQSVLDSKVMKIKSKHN

[6] = 72 h, differentiation-permissive conditions

C[C@]12CC[C@@H]3c4ccc(O)cc4C[C@@H](CCCCCCCCC[S+]([O-])CCCC(F)(F)C(F)(F)F)[C@H]3[C@@H]1CC[C@@H]2O (some centres unmarked) [fulvestrant, Fulvestrant] was tested, and the “sterol profile in OPCs at the screening dose (enzyme targeted)” value ([1]; 2 μM, 24 h) was “targeted CYP51”.
CC(C)=CCC[C@@H](C)[C@H]1CC=C2C3=C(CC[C@@]21C)[C@@]1(C)CC[C@H](O)C(C)(C)[C@@H]1CC3 [FF-MAS, 4,4-dimethyl-5α-cholesta-8,14,24-trien-3β-ol] was tested, and the “formation of MBP+ oligodendrocytes from OPCs” value (shortened to “formation … from OPCs”) [2, 6] was “enhanced oligodendrocyte formation; also recorded: maximally potent enhancers of oligodendrocyte formation among the 8,9-unsaturated sterols tested”.
CC(C)CCC[C@@H](C)[C@H]1CC[C@H]2C3=C(CC[C@]12C)[C@@]1(C)CC[C@H](O)C[C@@H]1CC3 [zymostenol, Zymostenol] was tested, and the “formation … from OPCs” value [2, 6] was “enhanced the formation of MBP^+ oligodendrocytes; also recorded: enhanced oligodendrocyte formation”.
CC(C)=CCC[C@@H](C)[C@H]1CC[C@@]2(C)C3=C(CC[C@]12C)[C@@]1(C)CC[C@H](O)C(C)(C)[C@@H]1CC3 [lanosterol, Lanosterol] was tested, and the “formation … from OPCs” value [2, 6] was “enhanced formation of MBP^+ oligodendrocytes in a dose-responsive fashion”.
OCCOc1ccc(/C(=C(/CCCl)c2ccccc2)c2ccccc2)cc1 [ospemifine, Ospemifene] was tested, and the “accumulation of sterol intermediates in OPCs (enzyme inhibition in OPCs, e.g. EBP)” value [1] was “did not inhibit EBP” and the “formation … from OPCs” value [2] was “had no effect on OPC differentiation”.
CC(C)CCC[C@@H](C)[C@H]1CC[C@H]2C3=C(CC[C@]12C)[C@@]1(C)CC[C@H](O)CC1=CC3 [8,9-dehydrocholesterol] was tested, and the “formation … from OPCs” value [2, 6] was “robustly enhanced oligodendrocyte formation”.
For CC(C)CCC[C@@H](C)[C@H]1CC=C2C3=C(CC[C@@]21C)[C@@]1(C)CC[C@H](O)C[C@@H]1CC3 [14-dehydrozymostenol, cholesta-8,14-dien-j-ol], the “formation … from OPCs” value [2, 6] was “enhanced the formation of MBP^+ oligodendrocytes”.
CN1CCC[C@@H]1CCO[C@](C)(c1ccccc1)c1ccc(Cl)cc1 [clemastine, Clemastine] was tested, and the “formation of MBP+ oligodendrocytes in combination with ketoconazole” value (“formation … with ketoconazole” for short) ([2]; 72 h) was “did not enhance differentiation above levels seen for ketoconazole alone”.
For CC(=O)N1CCN(c2ccc(OC[C@@H]3CO[C@](Cn4ccnc4)(c4ccc(Cl)cc4Cl)O3)cc2)CC1 (stereo in doubt) [R-trans-Ketoconazole], the “inhibition of mammalian CYP51 in vitro” value [3] was “strikingly less effective at inhibiting mammalian CYP51”.
With N[C@@H](Cc1cc(I)c(Oc2ccc(O)c(I)c2)c(I)c1)C(=O)O [liothyronine, Liothyronine] the “accumulation of sterol intermediates in OPCs (enzyme inhibition in OPCs, e.g. EBP)” value [1] was “minimal effects on sterol levels” and the “formation of oligodendrocytes in combination with liothyronine” value ([2]; liothyronine 3 μM combined with sterol-modulating treatments, 72 h) was “additive effects on oligodendrocyte formation”.
C=CCN(C)CCCCCCOc1ccc(C(=O)c2ccc(Br)cc2)c(F)c1 [Ro 48-8071] was tested, and the “reduction in lanosterol levels relative to ketoconazole alone” value ([1]; co-treatment ketoconazole 2.5 μM + Ro 48-8071 11 nM, 24 h) was 90%, the “formation … from OPCs” value [2, 6] was “little impact” and the “total cell number (DAPI+ nuclei)” value ([2]; 3 d differentiation assay) was “little impact”. For the same compound, the “formation … with ketoconazole” value ([2]; 72 h) was “completely suppressed ketoconazole's pro-myelinating effects”.
In the case of C=C(c1ccc(C(=O)O)cc1)c1cc2c(cc1C)C(C)(C)CCC2(C)C [bexarotene, Bexarotene], the “accumulation of sterol intermediates in OPCs (enzyme inhibition in OPCs, e.g. EBP)” value ([1]; 24 h treatment) is reported as “minimal effects on sterol levels”.
For OC(Cn1cncn1)(Cn1cncn1)c1ccc(F)cc1F [fluconazole, Fluconazole], the “inhibition of mammalian CYP51 in vitro” value [3] was “did not inhibit mammalian CYP51 in vitro”.
For CC(C)CCC[C@@H](C)[C@H]1CC[C@H]2C3=C(CC[C@]12C)[C@@]1(C)CC[C@H](O)C(C)(C)[C@@H]1CC3 [MAS-414], the “formation … from OPCs” value [2, 6] was “enhanced oligodendrocyte formation; also recorded: optimal efficacy and potency among all canonical cholesterol biosynthesis intermediates evaluated”.
methyl-β-cyclodextrin was tested, and the “cholesterol levels in OPCs” value ([1]; methyl β-cyclodextrin 1 mM for 30 min) was “reductions in cholesterol levels comparable to pathway inhibitor treatment” and the “formation … from OPCs” value [2, 6] was “had no effect on oligodendrocyte formation”.
In the case of Clc1ccccc1C(c1ccccc1)(c1ccccc1)n1ccnc1 [clotrimazole, Clotrimazole], the IC50 [4] is reported as 300 to 700 nM.
In the case of CC(C)CCC[C@@H](C)[C@H]1CC=C2C3=C(CC[C@@]21C)[C@@]1(C)CC[C@H](O)C(C)(C)[C@@H]1CC3 [MAS-412], the “formation … from OPCs” value [2, 6] is reported as “enhanced oligodendrocyte formation; also recorded: optimal efficacy and potency among all canonical cholesterol biosynthesis intermediates evaluated”.
In the case of Cc1cc(C)c(CNC(=O)c2cc(-c3ccc(CN4CCOCC4)cc3)cc3c2cnn3C2CCCC2)c(=O)[nH]1 [EPZ005687], the “accumulation of sterol intermediates in OPCs (enzyme inhibition in OPCs, e.g. EBP)” value ([1]; 24 h treatment) is reported as “uniquely caused accumulation of zymosterol and zymostenol in OPCs”, the “inhibition of EBP enzymatic activity” value [5] is reported as “directly inhibiting EBP enzymatic activity” and the “formation … from OPCs” value [2, 6] is reported as “robustly enhanced oligodendrocyte formation”.
CN1[C@@H]2CC[C@H]1C[C@@H](OC(c1ccccc1)c1ccccc1)C2 [benztropine, Benztropine] was tested, and the “accumulation of sterol intermediates in OPCs (enzyme inhibition in OPCs, e.g. EBP)” value ([1]; 24 h treatment) was “induced accumulation of zymostenol and zymosterol and decreased basal sterol levels”, the “inhibition of EBP enzymatic activity” value [5] was “clear inhibition” and the “formation … with ketoconazole” value ([2]; 72 h) was “did not enhance differentiation above levels seen for ketoconazole alone”.
With CC(C)=CCC[C@@H](C)[C@H]1CC[C@H]2C3=C(CC[C@]12C)[C@@]1(C)CC[C@H](O)C(C)(C)C1CC3 (some centres unmarked) [T-MAS] the “formation … from OPCs” value [2, 6] was “enhanced oligodendrocyte formation”.
In the case of CC(C)CCC[C@@H](C)[C@H]1CC[C@H]2[C@@H]3CC=C4C[C@@H](O)CC[C@]4(C)[C@H]3CC[C@]12C [cholesterol, Cholesterol], the “formation … from OPCs” value [2, 6] is reported as “ineffective; also recorded: had no effect on OPCs”.
With OCCOCCN1CCN(C(c2ccccc2)c2ccc(Cl)cc2)CC1 (centres unmarked) [hydroxyzine, Hydroxyzine] the “inhibition of EBP enzymatic activity” value [5] was “directly inhibiting EBP enzymatic activity”.
With CN(C)CCOc1ccc(/C(=C(/CCCl)c2ccccc2)c2ccccc2)cc1 [toremifene, Toremifene] the “accumulation of sterol intermediates in OPCs (enzyme inhibition in OPCs, e.g. EBP)” value ([1]; 24 h treatment) was “inhibited EBP” and the “formation … from OPCs” value [2, 6] was “enhanced MBP^+ oligodendrocyte generation over a wide dose range”.
With CC(=O)N1CCN(c2ccc(OC[C@H]3CO[C@@](Cn4ccnc4)(c4ccc(Cl)cc4Cl)O3)cc2)CC1 (stereo in doubt) [S-trans-Ketoconazole] the “inhibition of mammalian CYP51 in vitro” value [3] was “strikingly less effective at inhibiting mammalian CYP51”.
